For one assay, the system named is SD rats. As to the kind of experiment: Oral glucose tolerance test in SD rats. As to conditions: male SD rats, 0.1 mg/kg once by gavage, glucose 4.0 g/kg; decline rate of AUCGlu 0-60 min after sugar loading. The assay is classed as in vivo, rat. On the procedure: 2. Oral Glucose Tolerance Test and UrinaR^y Glucose Excretion Test
The following methods were used to evaluate the effects of the compounds of the invention on improving oral glucose tolerance and glycosuria excretion.
Test method: The weight and the fasting blood glucose levels of male SD rats were measured after an overnight 15-hour fast. The rats were grouped by their weights and fasting plasma glucose levels. Each test group was administered with the corresponding test compound once by gavage at a dose of 0.1 mg/Kg, and the blank control group was administered solvent. After 30 minutes, the blood glucose level (i.e. zeropoint blood glucose) of each group was measured, and then each group was immediately administered glucose (4.0 g/kg) once by gavage. The blood was drawn from the tail vein at 15, 30 and 60 minutes after glucose administration and the blood glucose concentrations of SD rats were measured continuously on blood-glucose meter. The decline rate of the area under the blood sugar curve within 60 minutes (AUCGlu 0-60 min) after sugar loading was calculated.
After blood glucose level at 60 min time point was measured, each group was placed in a metabolism cage, and the urine was collected during 1.5 hours to 24 hours and 24 hours to 48 hours after drug administration with the metabolism cage as the unit. The urine volume of each metabolism cage at each point was recorded. The urine was collected and centrifuged to obtain the supernatant. The […] had free access to food and water during the urine collection. The urine glucose concentration of SD rats at each time point was determined on automatic biochemical analyzer.

For the next assay, the target named is human SGLT1 (Homo sapiens (Human), UniProt P13866). As to the kind of experiment: Test of inhibitory activity on SGLT1 (14C-AMG uptake in CHO cells expressing human SGLT1). Type of assay: cell-based. The settings on record: CHO cells expressing human SGLT1, 0.5 μM 14C-AMG, 37° C. 1 hour. On the procedure:
1. Test of Inhibitory Activity on SGLT1
the following methods can be used to determine the inhibitory activity of the compounds described in the invention on SGLT-1.
mock-transfected FIP-in CHO cells (3×10^4) and CHO cells expressing human SGLT1 gene were seeded into 96-well plates respectively. The cells were incubated for 12 hours. Each well of the 96-well plate was washed with 150 μL of sodium-free buffer once. To each well was added 50 μL of sodium-containing buffer containing test compounds of different concentrations and 0.5 μM […]. The incubation mixture was incubated at 37° C. for 1 hour. To each well was added 150 μL of precooled sodium-free buffer to terminate the reaction. The cell pellet was washed with sodium-free buffer three times and the residual liquid in well was removed. To each well was added 20 μL of precooled 100 mM NaOH. The 96-well plate was vibrated at 900 rpm for 5 minutes. Scintillation fluid (80 μL) was added to each well which was then vibrated at 600 rpm for 5 minutes. The amount of 14C-AMG was quantitatively detected using liquid scintillation.

Results on 3 molecules are retold here after patent US12324812B2, “Glucopyranosyl derivatives and their uses” (SUNSHINE LAKE PHARMA CO., LTD., priority 2019, dated 2025).

human SGLT1, sequence (P13866 whole entry): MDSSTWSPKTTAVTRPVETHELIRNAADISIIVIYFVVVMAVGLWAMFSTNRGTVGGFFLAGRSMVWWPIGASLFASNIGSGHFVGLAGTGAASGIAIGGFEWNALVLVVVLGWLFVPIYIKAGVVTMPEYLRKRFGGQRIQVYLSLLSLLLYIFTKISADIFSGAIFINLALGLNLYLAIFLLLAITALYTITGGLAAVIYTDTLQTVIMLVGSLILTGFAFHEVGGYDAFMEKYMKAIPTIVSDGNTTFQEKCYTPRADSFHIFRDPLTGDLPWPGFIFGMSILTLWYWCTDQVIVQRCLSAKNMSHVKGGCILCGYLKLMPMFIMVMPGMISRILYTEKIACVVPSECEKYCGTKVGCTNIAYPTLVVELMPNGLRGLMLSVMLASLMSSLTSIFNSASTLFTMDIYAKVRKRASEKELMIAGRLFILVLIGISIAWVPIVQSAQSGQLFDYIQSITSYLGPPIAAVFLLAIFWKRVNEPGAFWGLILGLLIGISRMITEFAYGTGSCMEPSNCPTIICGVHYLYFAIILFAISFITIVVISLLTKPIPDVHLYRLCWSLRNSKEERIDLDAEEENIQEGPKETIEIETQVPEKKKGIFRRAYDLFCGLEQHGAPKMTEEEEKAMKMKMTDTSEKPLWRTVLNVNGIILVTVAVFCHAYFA

The IC50 is the concentration that inhibits the measured activity by half. Turning to `Cc1ccc([C@]23OC[C@](CO)(O2)[C@@H](O)[C@H](O)[C@H]3O)cc1Cc1ccc(CCCC(=O)NC2(C(=O)NCCN(C)C)CCCCC2)cc1` [Example 4, N-(2-dimethylaminoethyl)-1-[4-[4-[[2-methyl-5-[(1S, 2S, 3S, 4R, 5S)-2,3,4,-trihydroxy-1-(hydroxymethyl)-6,8-dioxabicyclo [3.2.1]octane-5-yl]phenyl]methyl]phenyl]butyrylamino] cyclohexyl formamide], the hypoglycemic rate with SD rats was found to be 26.25%. At human SGLT1, the IC50 turned out to be 1.18 nM.

Take `CCC[C@H]1O[C@@H](c2ccc(C)c(Cc3ccc(CCCC(=O)NC4(C(=O)NCCN(C)C)CCCCC4)cc3)c2)[C@H](O)[C@@H](O)[C@@H]1O` [Example 3, N-(2-dimethylaminoethyl)-1-[4-[4-[[2-methyl-5-[(2S, 3R, 4S, 5S, 6R)-3,4,5-trihydroxy-6-propyl-tetrahydropyran-2-yl]phenyl]methyl]phenyl]butyrylamino] cyclohexylformamide]: the hypoglycemic rate in the assay with SD rats was determined as 29.42%. Moreover, the IC50 at human SGLT1 was found to be 0.25 nM.

As for `CC[C@H]1O[C@@H](c2ccc(C)c(Cc3ccc(CCCC(=O)NC4(C(=O)NCCN(C)C)CCCCC4)cc3)c2)[C@H](O)[C@@H](O)[C@@H]1O` [Example 1, N-(2-dimethylaminoethyl)-1-[4-[4-[[5-[(2S, 3R, 4S, 5S, 6R)-6-ethyl-3,4,5-trihydroxy-tetrahydropyran-2-yl]-2-methyl-phenyl]methyl]phenyl]butyrylamino] cyclohexyl formamide], the hypoglycemic rate in the assay on SD rats is recorded as 31.28%. Further, at human SGLT1, the IC50 was determined as 0.22 nM.
